Source: US11752158B2 (priority 2007, dated 2023)
Where “and” joins values, the source holds several entries; their conditions need not be identical. Identical values can stand only once. Entries after “also recorded” stand apart in the source; their conditions may differ.

Experiments:
male Sprague-Dawley rats [1] = test: Gross necropsy after 5-day i.v. dosing (Example 1); type: in vivo, rat; details: i.v. once a day for 5 days
Experimental: (§1) To examine the reduction of toxicity associated with the co-administration of 25-hydroxyvitamin D3 with 25-hydroxyvitamin D2 compared to 25-hydroxyvitamin D3 alone, 90 male Sprague-Dawley rats are treated intravenously for five consecutive days with various combinations of 25-hydroxyvitamin D3 and 25-hydroxyvitamin D2. One day prior to the initiation of the study, rats are randomly selected, assigned to groups and treated as follows in Table 3:
(§2) For each day's treatment of each animal, the appropriate material was administered i.v. Daily treatments were performed within a 3 hours window on each day. On the first day of treatment (pre-dose) and at 24 hours time points on day 2 before the second dose administration (0 being the time of the first injection), blood (˜1 mL) was collected from the jugular vein catheter from animals in Group 1 to 15 into unpreserved tubes. The serum was separated out, transferred into new tubes that were immediately frozen at approximately −80° C. Prior to the sacrifice of all animals at 120 hours on Day 6 blood (˜2 mL) was collected into unpreserved tubes from the jugular vein catheter from all animals. […] For each animal, the necropsy consisted of an external examination, including reference to all clinically recorded lesions, as well as internal “abbreviated” examinations.

male Sprague-Dawley rats [2] = test: Serum calcium levels after 5-day i.v. dosing (Example 1, FIG. 2); type: in vivo, rat; details: Group 11: 6 μg/kg 25-hydroxyvitamin D3 alone, 5 day treatment period
Experimental: as §1, §2

[3] = Total serum 25-hydroxyvitamin D by LC-MS/MS (Example 1, FIG. 1); type: in vivo, rat; details: indicated dosing, daily for a period of 5 days; 120 hours post initial dose
Experimental: as §1
(§3) The concentration of total 25-hydroxyvitamin D at 120 hours post initial dose was determined in serum samples using a high-performance liquid chromatographic method using tandem mass spectrometry detection. The method was utilized to determine the individual concentrations of 25-hydroxyvitamin D3 and 25-hydroxyvitamin D2 in serum and the total was determined as a sum of the concentrations. At 24 h post final dose, serum collected from animals was analyzed for changes in levels of 25-hydroxyvitamin D3, 25-hydroxyvitamin D2 and their metabolites.

[4] = Serum metabolites of 25-hydroxyvitamin D3 and 25-hydroxyvitamin D2 (Example 1, FIG. 4 and 5); type: in vivo, rat
Experimental: as §3

male Sprague-Dawley rats [5] = test: Serum calcium levels at day 5 (Example 2, FIG. 6); type: in vivo, rat; details: i.v. once a day for 5 days
Experimental: Another study was carried out to assess the effects of co-administration of 25-hydroxyvitamin D with 25-hydroxyvitamin D2 compared to 25-hydroxyvitamin D3 alone on 102 male Sprague-Dawley rats. Rats about […], about 175-250 g in weight, were divided into groups of six males each. The groups were administered various combinations of 25-hydroxyvitamin D3 and 25-hydroxyvitamin D2 intravenously (or the same volume of control vehicle) once daily via the jugular vein catheter, for five consecutive days, according to Table 5 below.
Dosing was carried out at similar times each day, within a three hour window of the time of last dose. Blood was collected at day 0 (the first day of treatment) for analysis, and animals were monitored twice daily. Animals from all groups were euthanized on day 5, 24 hours after the last dose, and blood was collected by cardiac puncture. All rats were subjected to an abbreviated necropsy.

[6] = test system: patients with end-stage renal disease (ESRD); test: Serum calcium in end-stage renal disease patients on hemodialysis (Example 4); type: in vivo, human; details: i.v. thrice weekly
Experimental: (§4) The formulations examined in this study are aqueous isotonic and sterile solutions containing either 20 mcg of 25-hydroxyvitamin D3 alone (test preparation #1) or in combination with 10 mcg 25-hydroxyvitamin D2 (test preparation #2). A total of 75 […] Caucasian, Asian, Hispanic and African-American subjects participate in this study, all of whom are at least 4-months on regular hemodialysis and have serum 25-hydroxyvitamin D levels below 15 ng/mL. Prior to enrolling, all subjects provide two fasting morning blood samples, separated by at least one week, to establish pre-treatment baseline values of serum calcium, plasma intact PTH, and serum 25-hydroxyvitamin D. On the morning of Day 1, the subjects are randomly assigned to one of three treatment groups, and they begin thrice weekly dosing with the test preparation #1 or #2, or with a matching placebo. All dosing occurs during regularly scheduled hemodialysis sessions and is accomplished by gradual injection (over a period of 1 to 5 minutes) into the blood exiting from the hemodialysis machine. […] At the conclusion of the study, the laboratory data are analyzed by treatment group and by test formulation after appropriate correction for baseline values. […]

[7] = Serum 25-hydroxyvitamin D in end-stage renal disease patients on hemodialysis (Example 4); type: in vivo, human; details: i.v. thrice weekly, 20 mcg 25-hydroxyvitamin D3 alone or with 10 mcg 25-hydroxyvitamin D2; first 3 months of dosing, steady state thereafter
Experimental: as §4

[8] = test system: patients with advanced prostate cancer; details: human, in vivo, po
From the text: The efficacy and safety of an oral preparation of 25-hydroxyvitamin D2 is examined in a 3-month study of patients with advanced prostate cancer being treated with high-dose calcitriol once per week. For this study, 25-hydroxyvitamin D2 was formulated in soft-gelatin capsules. Forty patients with advanced prostate cancer undergoing treatment with high-dose calcitriol and Docetaxel were divided into two equal groups. Along with weekly calcitriol doses, group #1 receives between 2-20 mcg 25-hydroxyvitamin D2, while group #2 receives placebo. Prior to enrolling, all subjects provide two fasting morning blood samples, separated by at least one week, to establish pre-treatment baseline values of serum calcium, plasma intact PTH, and serum 25-hydroxyvitamin D. Additional fasting blood samples and 24-hour urine collections are obtained from each subject 24 h following the administration of the weekly administration of calcitriol for determination of serum calcium and serum 25-hydroxyvitamin D. Throughout the study, all subjects adhere to a daily intake of approximately 1,000 to 1,500 mg of elemental calcium (from self-selected diets and calcium supplements, as needed) under the ongoing guidance of a dietician. At the conclusion of the study, the laboratory data are analyzed by treatment group and by test formulation after appropriate correction for baseline values.

SMILES | Gross Necropsy Findings (male Sprague-Dawley rats [1]; Group 6: 25-hydroxyvitamin D2 0 μg/kg, 25-hydroxyvitamin D3 0.3 μg/kg) | Gross Necropsy Findings (male Sprague-Dawley rats [1]; Group 11: 25-hydroxyvitamin D2 0 μg/kg, 25-hydroxyvitamin D3 6 μg/kg) | serum calcium levels (male Sprague-Dawley rats [2]) | total serum 25-hydroxyvitamin D [3] | metabolism / catabolism of the prohormone ([4]; observation in rats, serum 24 h post final dose) | Serum calcium levels at day 5 (male Sprague-Dawley rats [5]; 4 μg/kg 25-hydroxyvitamin D3 alone) | Serum calcium levels at day 5 (male Sprague-Dawley rats [5]; 8 μg/kg 25-hydroxyvitamin D3 alone) | mean serum calcium ([6]; 20 mcg 25-hydroxyvitamin D3 alone or with 10 mcg 25-hydroxyvitamin D2, 3-month study) | episodes of hypercalcemia (serum calcium above 10.2 mg/dL) ([6]; 20 mcg 25-hydroxyvitamin D3 alone, 3-month study) | serum 25-hydroxyvitamin D levels [7] | metabolism / catabolism of the prohormone ([4]; rat, in vivo) | episodes of hypercalcemia (serum calcium above 10.2 mg/dL) [8]
C=C1CC[C@H](O)C/C1=C/C=C1\CCC[C@]2(C)[C@@H]([C@H](C)CCCC(C)(C)O)CC[C@@H]12 [25-hydroxyvitamin D3] | None | Severe signs of toxicity (blood in the lungs) and 4 of 6 animals treated exhibiting blood in lung tissue and 4/6 animals had | highest achieved level of serum calcium; also recorded: hypercalcemia | elevation | catabolized more readily to the active 1,25-dihydroxyvitamin D3 form | hypercalcemia | hypercalcemia | increase significantly from baseline | more frequently observed | progressively increasing |  | 
C=C1CC[C@H](O)C/C1=C/C=C1\CCC[C@]2(C)[C@@H]([C@H](C)/C=C/[C@H](C)C(C)(C)O)CC[C@@H]12 [25-hydroxyvitamin D2] |  |  |  |  |  |  |  |  |  |  | catabolized more readily to 24, 25-dihydroxyvitamin D2 | more frequently observed in the placebo group than in the treatment group
